Test results: patent US4064228A (priority 1975, dated 1977)
Where two headings read alike, the source gives them in different places.

Assays:
[1] = tested on: antibody IgG raised to azomorphine conjugate (morphine-specific); format: binding
Description: The dried sorbent (300 mg) was washed with 50 ml. saline (0.9%) five times and suspended in a final volume of 15 ml, to which 5 ml of crude antiserum raised to the azomorphine conjugate of Example 5, supra was added. […] The matrix recovered by centrifugation was used as a slurry. 10 ml, […] HCL was added to sorbent. After centrifugation for 1 minute the filtered supernatant was neutralized at once with 1 M dibasic sodium phosphate. The acid base cycle was repeated three times. The recovered antibody solution was dialyzed against 12 liters of 0.1 M phosphate buffer, pH 7.4. […] The specificities of recovered antibody IgG were next determined by immune fluorescence techniques.
Quenching of antibody fluorescence was performed using antibody IgG from non pooled samples. […] Native alkaloid was added in increasing amounts to each tube containing azomorphine and IgG in a 10:1 hapten: antibody ratio (× 10^-10 moles/ml). The alkaloid was added to IgG simultaneously with or in advance of azomorphine. All dilutions were done in triplicate. Incubations including controls were carried out for 10 minutes to 12 hours at 23° C.

[2] = tested on: antibody to 3-carboxymethyl opium alkaloid-protein antigen (Spector); details: Spector U.S. Pat. Nos. 3,709,868 and 3,822,245; cited from earlier work
[3] = tested on: opium alkaloid antibody (prior art, raised with morphine); details: summary of all prior art known to applicant; cited from earlier work
[4] = tested on: antibody raised to azomorphine conjugate (crude antisera); format: binding; details: morphine taken as 100%; for % Cross-reactivity: M50/A50 (amounts for 50% inhibition of labeled hapten binding), Abraham method; for Cross-reactivity of morphine-specific antibody (general statement): under the conditions just described / similarly measured
Description: After 2 hours, an equal volume of a neutral, saturated ammonium sulfate solution was added. The resulting precipitates, sedimented by centrifugation at 3000 rpm for 15 minutes at 4° C, were washed once in 50% saturated ammonium sulphate solution. Each precipitate was dissolved in 0.2 ml NCS solubilizer (Amersham-Searle Corp.) and transferred to a scintillation counting vial containing 10 ml. Aquasol dispersant (New England Nuclear Corp.) and counted in a Nuclear Chicago Liquid Scintillation Spectrometer.
Cross-reactivity was computed by the method of Abraham, J. Clin. Endocrin. & Metab.

[5] = tested on: antibody to 3-carboxymethyl opium alkaloid-protein antigen (Leute); details: Leute et al., J.A.M.A. 1972; Nature (New Biology) 1972; cited from earlier work
antibodies to serotonin = details: reported by Spector et al., Science 179:1340 (1973); cited from earlier work
[6] = even in vast hapten excess, azomorphine:IgG 10:1

Compound	Inhibition of fluorescence quenching [1, 6]	% Cross-reactivity [4] [%]	Cross-reactivity of morphine-specific antibody (general statement) [4]	further results
COc1ccc2c3c1O[C@H]1[C@@H](O)C=C[C@H]4[C@@H](C2)N(C)CC[C@@]341 [Codeine, codeine]	slight	11	≤ 20%	Cross-reactivity with codeine [2]: very high cross-reactivity; Cross-reactivity with codeine [3]: extremely high cross-reactivity; Cross-reactivity with codeine [5]: high cross-reactivity
COc1ccc2[nH]cc(CCN)c2c1 [methoxyserotonin, 5-methoxytryptamine]				Cross-reactivity with serotonin antibodies (antibodies to serotonin): substantially complete cross-reactivity
CC(=O)O[C@H]1C=C[C@H]2[C@H]3Cc4ccc(O)c5c4[C@@]2(CCN3C)[C@H]1O5 [Monoacetylmorphine]	slight	7	not more than 10%	
CCOc1ccc2c3c1O[C@H]1[C@@H](O)C=C[C@H]4[C@@H](C2)N(C)CC[C@@]341 [Ethylmorphine]		16		
CCC(=O)C(CC(C)N(C)C)(c1ccccc1)c1ccccc1 (stereo not shown) [Methadone]		0.01	≤ 0.1%	
CC(=O)Oc1ccc2c3c1O[C@H]1[C@@H](OC(C)=O)C=C[C@H]4[C@@H](C2)N(C)CC[C@@]341 [heroin, Diacetylmorphine]	slight	7	not more than 10%	
COc1ccc2c(c1)[C@@]13CCCC[C@H]1[C@@H](C2)N(C)CC3 [Dextromethorphan, 3-methoxy N-methyl morphinan]	slight	0.01	≤ 0.1%	
CN1CC[C@]23c4c5cc(N=Nc6ccc(C(=O)O)cc6)c(O)c4O[C@H]2[C@@H](O)C=C[C@H]3[C@H]1C5 [Example 1, 2-(4'-carboxyphenylazo) morphine]			about 100%	Association constants determined by the Sips equation applied to fluorescence data ([1]; antibody IgG from non pooled samples): 1e+07 to 3e+08 L/mol; Quenching maxima (antibody fluorescence) ([1]; antibody IgG from non pooled samples, azomorphine as quencher, 23° C): 56-77%
CN1CC[C@]23c4c5ccc(O)c4O[C@H]2[C@@H](O)C=C[C@H]3[C@H]1C5 [Morphine, morphine]		100		Inhibition of fluorescence quenching ([1]; morphine 40 × 10^-10 moles/ml, 1 × 10^-10 moles/ml antibody, 10 × 10^-10 moles/ml azomorphine): completely inhibited
C=CCN1CC[C@]23c4c5ccc(O)c4O[C@H]2[C@@H](O)C=C[C@H]3[C@H]1C5 [N-allylnormorphine]		2		
